# Measured values as given in patent publication US20230048132A1, “CYCLIN-DEPENDENT KINASE INHIBITORS” (SPV THERAPEUTICS INC., priority 2018, published 2023).
# Where two headings read alike, the source gives them in different places.
# Tests used:
# Assay in all cases: CDK inhibition assay (microfluidic LabChip, IC50 format)
# CDK6-CYCLIND3 = target: T1, CDK6-CYCLIND3 (Homo sapiens, UniProt Q00534); format: biochemical
# T1 construct: purchased Carna
# CDK2-CYCLINA = target: T2, CDK2-CYCLINA (Homo sapiens, UniProt P24941); format: biochemical; details: Table 4a; read-out: CDK2 CyclinA IC50
# T2 construct: purchased Millipore
# CDK9-CYCLINT1 = target: T3, CDK9-CYCLINT1 (Homo sapiens, UniProt P50750); format: biochemical; details: Table 4a; read-out: CDK9 CyclinT1 IC50
# T3 construct: purchased Carna
# T3 sequence (P50750 whole entry): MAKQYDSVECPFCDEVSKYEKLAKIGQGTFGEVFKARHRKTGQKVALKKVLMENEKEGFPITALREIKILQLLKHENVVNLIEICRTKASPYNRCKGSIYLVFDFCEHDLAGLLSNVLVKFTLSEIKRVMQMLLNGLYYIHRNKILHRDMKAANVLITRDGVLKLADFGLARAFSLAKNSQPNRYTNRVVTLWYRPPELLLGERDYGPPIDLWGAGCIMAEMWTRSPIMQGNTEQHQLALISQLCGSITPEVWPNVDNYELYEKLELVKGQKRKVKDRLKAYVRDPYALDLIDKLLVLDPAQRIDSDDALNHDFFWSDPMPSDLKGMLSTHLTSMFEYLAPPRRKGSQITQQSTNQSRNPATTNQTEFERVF
# T3 sequence (O60563 whole entry partner): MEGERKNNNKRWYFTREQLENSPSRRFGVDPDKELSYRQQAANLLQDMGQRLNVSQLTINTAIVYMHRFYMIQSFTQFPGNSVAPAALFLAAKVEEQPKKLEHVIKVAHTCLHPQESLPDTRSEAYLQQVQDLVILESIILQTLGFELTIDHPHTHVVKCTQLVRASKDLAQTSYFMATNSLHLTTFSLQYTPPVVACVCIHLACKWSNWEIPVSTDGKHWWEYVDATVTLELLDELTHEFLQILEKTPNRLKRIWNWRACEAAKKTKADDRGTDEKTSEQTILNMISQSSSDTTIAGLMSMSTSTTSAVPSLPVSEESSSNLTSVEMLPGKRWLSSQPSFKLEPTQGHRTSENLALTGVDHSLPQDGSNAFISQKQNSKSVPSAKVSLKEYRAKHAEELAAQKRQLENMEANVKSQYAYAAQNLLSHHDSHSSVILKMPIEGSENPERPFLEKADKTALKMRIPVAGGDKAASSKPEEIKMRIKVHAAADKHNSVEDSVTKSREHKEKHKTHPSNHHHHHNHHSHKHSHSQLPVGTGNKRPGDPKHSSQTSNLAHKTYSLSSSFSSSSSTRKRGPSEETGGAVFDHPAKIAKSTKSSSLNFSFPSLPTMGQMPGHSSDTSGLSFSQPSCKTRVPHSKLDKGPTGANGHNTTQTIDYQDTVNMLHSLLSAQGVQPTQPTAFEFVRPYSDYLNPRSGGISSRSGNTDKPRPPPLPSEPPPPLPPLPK
# CDK7 CyclinH = CDK7 CyclinH (Homo sapiens, UniProt P50613); format: biochemical; details: Table 4a
# CDK7 CyclinH, sequence (P50613 whole entry): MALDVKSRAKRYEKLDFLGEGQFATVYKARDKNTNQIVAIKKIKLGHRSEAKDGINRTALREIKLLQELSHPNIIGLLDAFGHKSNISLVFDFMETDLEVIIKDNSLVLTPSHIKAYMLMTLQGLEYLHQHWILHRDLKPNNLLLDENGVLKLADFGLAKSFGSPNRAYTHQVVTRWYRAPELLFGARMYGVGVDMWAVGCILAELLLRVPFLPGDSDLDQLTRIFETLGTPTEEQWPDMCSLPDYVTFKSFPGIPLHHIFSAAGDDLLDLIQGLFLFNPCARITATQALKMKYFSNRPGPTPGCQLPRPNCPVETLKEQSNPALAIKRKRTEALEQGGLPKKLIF
# CDK7 CyclinH, sequence (P51946 whole entry partner): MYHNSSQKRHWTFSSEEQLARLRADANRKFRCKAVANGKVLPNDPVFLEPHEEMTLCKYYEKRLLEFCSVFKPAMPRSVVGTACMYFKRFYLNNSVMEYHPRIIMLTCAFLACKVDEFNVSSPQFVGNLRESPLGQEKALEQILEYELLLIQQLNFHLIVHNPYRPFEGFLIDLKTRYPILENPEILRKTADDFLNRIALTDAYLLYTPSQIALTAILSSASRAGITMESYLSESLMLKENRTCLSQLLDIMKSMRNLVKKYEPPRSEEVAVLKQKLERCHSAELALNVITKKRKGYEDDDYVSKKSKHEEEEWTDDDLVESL
# CDK7 CyclinH, sequence (P51948 whole entry partner): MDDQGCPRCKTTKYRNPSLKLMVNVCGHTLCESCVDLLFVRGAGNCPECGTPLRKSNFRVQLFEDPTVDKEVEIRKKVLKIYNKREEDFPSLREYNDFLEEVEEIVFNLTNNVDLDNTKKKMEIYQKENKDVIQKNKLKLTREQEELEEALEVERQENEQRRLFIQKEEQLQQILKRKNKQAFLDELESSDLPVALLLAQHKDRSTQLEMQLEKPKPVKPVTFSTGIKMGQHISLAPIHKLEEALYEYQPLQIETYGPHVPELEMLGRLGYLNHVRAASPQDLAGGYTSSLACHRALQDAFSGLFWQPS
# CDK4-CYCLIND1 = CDK4-CYCLIND1 (Homo sapiens, UniProt P11802)
# CDK4-CYCLIND1, sequence (P11802 whole entry): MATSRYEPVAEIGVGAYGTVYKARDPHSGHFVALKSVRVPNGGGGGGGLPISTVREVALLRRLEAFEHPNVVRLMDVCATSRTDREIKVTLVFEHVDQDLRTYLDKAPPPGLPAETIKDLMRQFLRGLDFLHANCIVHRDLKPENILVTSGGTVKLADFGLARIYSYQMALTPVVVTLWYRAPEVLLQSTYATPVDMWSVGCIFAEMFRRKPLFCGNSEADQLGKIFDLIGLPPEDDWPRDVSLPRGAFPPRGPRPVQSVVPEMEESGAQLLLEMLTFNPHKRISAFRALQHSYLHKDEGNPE
# CDK4-CYCLIND1, sequence (P24385 whole entry partner): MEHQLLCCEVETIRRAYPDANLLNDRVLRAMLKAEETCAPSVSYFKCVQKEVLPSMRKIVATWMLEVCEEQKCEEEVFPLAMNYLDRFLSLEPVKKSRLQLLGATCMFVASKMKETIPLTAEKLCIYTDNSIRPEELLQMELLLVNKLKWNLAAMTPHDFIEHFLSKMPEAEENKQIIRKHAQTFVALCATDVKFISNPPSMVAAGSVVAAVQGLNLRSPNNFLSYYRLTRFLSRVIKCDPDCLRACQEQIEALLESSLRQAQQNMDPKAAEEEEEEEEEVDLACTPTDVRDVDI
# [1] = Table 4a, read-out: CDK6 CyclinD3 IC50
# [2] = CDK4 IC50, Table 4b, upper part
# [3] = Table 4b, upper part, read-out: CDK6 IC50
# [4] = CDK4 CyclinD1 IC50, Table 4b, lower part, a second value in parentheses for some compounds
# [5] = Table 4b, lower part, read-out: CDK6 CyclinD3 IC50
# T1 sequence (Q00534 whole entry): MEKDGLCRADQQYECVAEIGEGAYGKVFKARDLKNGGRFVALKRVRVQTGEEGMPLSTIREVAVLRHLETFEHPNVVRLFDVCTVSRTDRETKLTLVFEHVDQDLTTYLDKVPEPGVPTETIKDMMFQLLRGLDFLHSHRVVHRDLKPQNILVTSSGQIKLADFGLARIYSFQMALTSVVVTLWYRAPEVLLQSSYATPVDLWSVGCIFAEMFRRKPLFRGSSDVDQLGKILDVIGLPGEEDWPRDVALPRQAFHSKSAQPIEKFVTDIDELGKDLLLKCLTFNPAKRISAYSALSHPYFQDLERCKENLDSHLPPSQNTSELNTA
# T1 sequence (P30281 whole entry partner): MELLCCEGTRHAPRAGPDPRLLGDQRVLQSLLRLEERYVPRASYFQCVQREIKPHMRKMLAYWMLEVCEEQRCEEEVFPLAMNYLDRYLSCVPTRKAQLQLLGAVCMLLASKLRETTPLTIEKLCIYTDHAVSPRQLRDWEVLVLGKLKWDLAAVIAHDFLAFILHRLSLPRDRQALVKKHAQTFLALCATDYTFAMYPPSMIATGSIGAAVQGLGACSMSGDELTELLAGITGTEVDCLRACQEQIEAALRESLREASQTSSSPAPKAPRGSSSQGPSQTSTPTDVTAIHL
SMILES,IC50 (CDK4-CYCLIND1; [2]) [nM],IC50 (CDK6-CYCLIND3; [3]) [nM],also measured
"O=C1NCC[C@@]12Cc1cnc(Nc3ccc(-c4cn[nH]c4)cc3)nc1N(C1CCCC1)C2=O [Example D168, (S)-2-((4-(1H-pyrazol-4-yl)phenyl)amino)-8-cyclopentyl-5,8-dihydro-7H-spiro[pyrido[2,3-d]pyrimidine-6,3′-pyrrolidine]-2′,7-dione]",,,IC50 (CDK6-CYCLIND3; [1]): 30 nM; IC50 (CDK2-CYCLINA): 55.4 nM; IC50 (CDK9-CYCLINT1): 6.52 nM; IC50 (CDK7 CyclinH): 3.1 µM
"COc1cc(N2CCN(C)CC2)ccc1Nc1ncc2c(n1)N(C1CCCC1)C(=O)[C@]1(CCNC1=O)C2 [Example D166, (S)-8-cyclopentyl-2-((2-methoxy-4-(4-methylpiperazin-1-yl)phenyl)amino)-5,8-dihydro-7H-spiro[pyrido[2,3-d]pyrimidine-6,3′-pyrrolidine]-2′,7-dione]",,,IC50 (CDK6-CYCLIND3; [1]): 79.2 nM; IC50 (CDK2-CYCLINA): 1860 nM; IC50 (CDK9-CYCLINT1): 307 nM; IC50 (CDK7 CyclinH): 13.9 µM
"Cn1cc(-c2ccc(Nc3ncc4c(n3)N(C3CCCC3)C(=O)[C@]3(CCNC3=O)C4)cc2)cn1 [Example D169, (S)-8-cyclopentyl-2-((4-(1-methyl-1H-pyrazol-4-yl)phenyl)amino)-5,8-dihydro-7H-spiro[pyrido[2,3-d]pyrimidine-6,3′-pyrrolidine]-2′,7-dione]",,,IC50 (CDK6-CYCLIND3; [1]): 9.37 nM; IC50 (CDK2-CYCLINA): 33.5 nM; IC50 (CDK9-CYCLINT1): 2.92 nM; IC50 (CDK7 CyclinH): 2.82 µM
"O=C1NCCC12Cc1cnc(Nc3ccc(N4CCNCC4)nc3)nc1N(C1CCCC1)C2=O (centres unmarked) [Example D7, 8-cyclopentyl-2-((6-(piperazin-1-yl)pyridin-3-yl)amino)-5,8-dihydro-7H-spiro[pyrido[2,3-d]pyrimidine-6,3′-pyrrolidine]-2′,7-dione]",8.68,13.1,
"CN1CCN(c2ccc(Nc3ncc4c(n3)N(C35CC(C3)C5)C(=O)[C@@]3(CCNC3=O)C4)cc2F)CC1 [Example D197, (R)-8-(bicyclo[1.1.1]pentan-1-yl)-2-((3-fluoro-4-(4-methylpiperazin-1-yl)phenyl)amino)-5,8-dihydro-7H-spiro[pyrido[2,3-d]pyrimidine-6,3′-pyrrolidine]-2′,7-dione]",,,IC50 (CDK4-CYCLIND1; [4]): 2220 nM; IC50 (CDK6-CYCLIND3; [5]): 5380 nM
"O=C1NCC[C@@]12Cc1cnc(Nc3ccc(N4CCC(N5CCOCC5)CC4)nc3)nc1N(C1CCCC1)C2=O [Example D193, (S)-8-cyclopentyl-2-((6-(4-morpholinopiperidin-1-yl)pyridin-3-yl)amino)-5,8-dihydro-7H-spiro[pyrido[2,3-d]pyrimidine-6,3′-pyrrolidine]-2′,7-dione]",,,IC50 (CDK4-CYCLIND1; [4]): 1.54 nM; IC50 (CDK6-CYCLIND3; [5]): 2.32 nM
"O=C1NCCC12Cc1cnc(Nc3ccc(N4CC5(CNC5)C4)nc3)nc1N(C1CCCC1)C2=O (centres unmarked) [Example D42, 2-((6-(2,6-diazaspiro[3.3]heptan-2-yl)pyridin-3-yl)amino)-8-cyclopentyl-5,8-dihydro-7H-spiro[pyrido[2,3-d]pyrimidine-6,3′-pyrrolidine]-2′,7-dione]",2.72,6.19,
"CC(C)N1CCN(c2ccc(Nc3ncc4c(n3)N(C3CCCC3)C(=O)C3(CCNC3=O)C4)nc2)CC1 (centres unmarked) [Example D9, 8-cyclopentyl-2-((5-(4-isopropylpiperazin-1-yl)pyridin-2-yl)amino)-5,8-dihydro-7H-spiro[pyrido[2,3-d]pyrimidine-6,3′-pyrrolidine]-2′,7-dione]",2.99,6.11,
"CN(C)CCOc1ccc(Nc2ncc3c(n2)N(C2CCCC2)C(=O)C2(CC(=O)N(C)C2=O)C3)cn1 (centres unmarked) [Example D29, 8-cyclopentyl-2-((6-(2-(dimethylamino)ethoxy)pyridin-3-yl)amino)-1′-methyl-5,8-dihydro-7H-spiro[pyrido[2,3-d]pyrimidine-6,3′-pyrrolidine]-2′,5′,7-trione]",367,1050,
"O=C1NCCC12Cc1cnc(Nc3ccc(N4CCOCC4)c(F)c3)nc1N(C1CCCC1)C2=O (centres unmarked) [Example D17, 8-cyclopentyl-2-((3-fluoro-4-morpholinophenyl)amino)-5,8-dihydro-7H-spiro[pyrido[2,3-d]pyrimidine-6,3′-pyrrolidine]-2′,7-dione]",4.41,10.2,
"CN(C)[C@H]1CCN(C(=O)c2ccc(Nc3ncc4c(n3)N(C3CCCC3)C(=O)C3(CCNC3=O)C4)cn2)C1 (stereo partly drawn) [Example D47, 8-cyclopentyl-2-((6-((S)-3-(dimethylamino)pyrrolidine-1-carbonyl)pyridin-3-yl)amino)-5,8-dihydro-7H-spiro[pyrido[2,3-d]pyrimidine-6,3′-pyrrolidine]-2′,7-dione]",3.37,10.6,
"CC(C)N1CCN(c2ccc(Nc3ncc4c(n3)N(C3CCCC3)C(=O)C3(CCNC3=O)C4)cc2F)CC1 (centres unmarked) [Example D10, 8-cyclopentyl-2-((3-fluoro-4-(4-isopropylpiperazin-1-yl)phenyl)amino)-5,8-dihydro-7H-spiro[pyrido[2,3-d]pyrimidine-6,3′-pyrrolidine]-2′,7-dione]",1.5,3.53,"IC50 (CDK4-CYCLIND1; Racemate Activity CDK4, Table 3, first value of the cell CDK4/CDK6, value of the racemate): 1.5 nM; IC50 (CDK6-CYCLIND3; Table 3, second value of the cell CDK4/CDK6, value of the racemate, read-out: Racemate Activity CDK6): 3.5 nM"
"CN(C)[C@H]1CCN(c2ccc(Nc3ncc4c(n3)N(C3CCCC3)C(=O)C3(CCNC3=O)C4)cc2)C1 (stereo partly drawn) [Example D44, 8-cyclopentyl-2-((4-((S)-3-(dimethylamino)pyrrolidin-1-yl)phenyl)amino)-5,8-dihydro-7H-spiro[pyrido[2,3-d]pyrimidine-6,3′-pyrrolidine]-2′,7-dione]",12,24.6,
"O=C1NCCC12Cc1cnc(Nc3ccc(OCCN4CCCCC4)cn3)nc1N(C1CCCC1)C2=O (centres unmarked) [Example D34, 8-cyclopentyl-2-((5-(2-(piperidin-1-yl)ethoxy)pyridin-2-yl)amino)-5,8-dihydro-7H-spiro[pyrido[2,3-d]pyrimidine-6,3′-pyrrolidine]-2′,7-dione]",44.6,56.5,
"CN1CCN(c2ccc(Nc3ncc4c(n3)N(C3CCCC3)C(=O)C3(CC(=O)N(C)C3=O)C4)cc2)CC1 (centres unmarked) [Example D21, 8-cyclopentyl-1′-methyl-2-((4-(4-methylpiperazin-1-yl)phenyl)amino)-5,8-dihydro-7H-spiro[pyrido[2,3-d]pyrimidine-6,3′-pyrrolidine]-2′,5′,7-trione]",51.2,166,
O=C1NCCC12Cc1cnc(Nc3ccc(OCCN4CCCCC4)nc3)nc1N(C1CCCC1)C2=O (centres unmarked) [Example D35],7.01,14.4,
"CC(C)N1CCN(c2ccc(Nc3ncc4c(n3)N(C3CCCC3)C(=O)C3(CC(=O)N(C)C3=O)C4)cc2)CC1 (centres unmarked) [Example D22, 8-cyclopentyl-2-((4-(4-isopropylpiperazin-1-yl)phenyl)amino)-1′-methyl-5,8-dihydro-7H-spiro[pyrido[2,3-d]pyrimidine-6,3′-pyrrolidine]-2′,5′,7-trione]",28.6,129,
"O=C1NCCC12Cc1cnc(Nc3ccc(N4CC5(CNC5)C4)cn3)nc1N(C1CCCC1)C2=O (centres unmarked) [Example D41, 2-((5-(2,6-diazaspiro[3.3]heptan-2-yl)pyridin-2-yl)amino)-8-cyclopentyl-5,8-dihydro-7H-spiro[pyrido[2,3-d]pyrimidine-6,3′-pyrrolidine]-2′,7-dione]",4.61,8.79,
"CC(C)N1CCN(c2ccc(Nc3ncc4c(n3)N(C3CCCC3)C(=O)C3(CCNC3=O)C4)c(F)c2)CC1 (centres unmarked) [Example D33, 8-cyclopentyl-2-((2-fluoro-4-(4-isopropylpiperazin-1-yl)phenyl)amino)-5,8-dihydro-7H-spiro[pyrido[2,3-d]pyrimidine-6,3′-pyrrolidine]-2′,7-dione]",9340,22600,
"CN1CCC2(Cc3cnc(Nc4ccc(N5CCNCC5)cc4)nc3N(C3CCCC3)C2=O)C1=O (centres unmarked) [Example D1, 8-cyclopentyl-1′-methyl-2-((4-(piperazin-1-yl)phenyl)amino)-5,8-dihydro-7H-spiro[pyrido[2,3-d]pyrimidine-6,3′-pyrrolidine]-2′,7-dione]",27,84.1,
"CN1CCN(c2ccc(Nc3ncc4c(n3)N(C3CCCC3)C(=O)C3(CC(=O)N(C)C3=O)C4)cn2)CC1 (centres unmarked) [Example D25, 8-cyclopentyl-1′-methyl-2-((6-(4-methylpiperazin-1-yl)pyridin-3-yl)amino)-5,8-dihydro-7H-spiro[pyrido[2,3-d]pyrimidine-6,3′-pyrrolidine]-2′,5′,7-trione]",135,455,
"O=C1NCCC12Cc1cnc(Nc3ccc(N4CC5(CNC5)C4)cc3)nc1N(C1CCCC1)C2=O (centres unmarked) [Example D40, 2-((4-(2,6-diazaspiro[3.3]heptan-2-yl)phenyl)amino)-8-cyclopentyl-5,8-dihydro-7H-spiro[pyrido[2,3-d]pyrimidine-6,3′-pyrrolidine]-2′,7-dione]",2.12,4.93,
"CC(C)N1CCN(c2ccc(Nc3ncc4c(n3)N(C3CCCC3)C(=O)C3(CC(=O)N(C)C3=O)C4)cn2)CC1 (centres unmarked) [Example D26, 8-cyclopentyl-2-((6-(4-isopropylpiperazin-1-yl)pyridin-3-yl)amino)-1′-methyl-5,8-dihydro-7H-spiro[pyrido[2,3-d]pyrimidine-6,3′-pyrrolidine]-2′,5′,7-trione]",105,311,
"O=C1NCC[C@@]12Cc1cnc(Nc3ccc(OCCN4CCCCC4)nc3)nc1N(C1CCCC1)C2=O [Example D192, (S)-8-cyclopentyl-2-((6-(2-(piperidin-1-yl)ethoxy)pyridin-3-yl)amino)-5,8-dihydro-7H-spiro[pyrido[2,3-d]pyrimidine-6,3′-pyrrolidine]-2′,7-dione]",,,IC50 (CDK4-CYCLIND1; [4]): 4.58 nM; IC50 (CDK6-CYCLIND3; [5]): 8.52 nM
